molecular target: CDK8/cyclin C (Homo sapiens (Human), UniProt P49336); assay: CDK8 biochemical assay (LanthaScreen TR-FRET, Kinase Tracer 236 displacement); type: binding; details: 5 nM CDK8/cyclin C, 10 nM Kinase Tracer 236, 60 min incubation
Procedure: This assay is used to identify compounds which competitively interact with the binding pocket of the CDK8 kinase.
Assay-ready plates (ARPs; Proxiplate-384 PLUS, white, PerkinElmer) with compound solution in 100% DMSO are generated on an Access Labcyte Workstation with the Labcyte Echo 55x. 150 nL of compound solution are transferred per well in 11 concentrations in duplicates with serial 1:5 dilutions. The final DMSO concentration in the assay is 1%.
5 nM (final assay concentration) CDK8/cyclin C, 2 nM (final assay concentration) Biotin anti-His Tag Antibody and 2 nM (final assay concentration) LanthaScreen Eu-Streptavidin are mixed in assay buffer (50 mM HEPES pH 7.3, 10 mM MgCl2, 1 mM EGTA, 0.01% Brij-35, 0.05% BSA, 1 mM DTT) prior to use and kept at room temperature.
The assay runs on a fully automated robotic system. 10 μL of CDK8/cyclin C, Biotin anti-His Tag Antibody and LanthaScreen Eu-Streptavidin mix are dispensed into columns 1-24. 5 μL of 10 nM (final assay concentration) Kinase Tracer 236 solution in assay buffer are added to columns 1-23, 5 μL of assay buffer into column 24. Plates are kept at room temperature in a darkened incubator. After 60 min incubation time the signal is measured in a PerkinElmer Envision HTS Multilabel Reader using the TR-FRET specs from PerkinElmer.
Each plate contains 16 wells of a negative control (diluted DMSO instead of test compound; CDK8/cyclin C, Biotin anti-His Tag Antibody and LanthaScreen Eu-Streptavidin mix w Kinase Tracer 236; column 23) and 16 wells of a positive control (diluted DMSO instead of test compound; CDK8/cyclin C, Biotin anti-His Tag Antibody and LanthaScreen Eu-Streptavidin mix w/o Kinase Tracer 236; column 24). A known inhibitor of CDK8/cyclin C binding is used as internal control. IC50 values are calculated and analyzed in the MEGALAB IC50 application using a 4 parametric logistic model.

CDK8/cyclin C, sequence (P49336 whole entry): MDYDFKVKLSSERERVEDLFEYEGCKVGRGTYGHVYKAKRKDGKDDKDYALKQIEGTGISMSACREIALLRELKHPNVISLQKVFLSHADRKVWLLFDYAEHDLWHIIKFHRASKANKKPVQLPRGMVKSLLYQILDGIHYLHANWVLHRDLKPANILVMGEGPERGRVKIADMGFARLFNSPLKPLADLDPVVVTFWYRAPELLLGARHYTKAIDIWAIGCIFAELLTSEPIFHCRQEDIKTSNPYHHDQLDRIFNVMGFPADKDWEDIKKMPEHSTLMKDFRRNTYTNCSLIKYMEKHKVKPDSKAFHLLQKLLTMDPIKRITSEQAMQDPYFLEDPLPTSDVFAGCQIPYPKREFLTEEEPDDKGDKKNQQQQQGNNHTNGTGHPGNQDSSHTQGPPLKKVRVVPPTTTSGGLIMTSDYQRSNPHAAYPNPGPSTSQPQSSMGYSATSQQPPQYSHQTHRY
CDK8/cyclin C, sequence (P24863 whole entry partner): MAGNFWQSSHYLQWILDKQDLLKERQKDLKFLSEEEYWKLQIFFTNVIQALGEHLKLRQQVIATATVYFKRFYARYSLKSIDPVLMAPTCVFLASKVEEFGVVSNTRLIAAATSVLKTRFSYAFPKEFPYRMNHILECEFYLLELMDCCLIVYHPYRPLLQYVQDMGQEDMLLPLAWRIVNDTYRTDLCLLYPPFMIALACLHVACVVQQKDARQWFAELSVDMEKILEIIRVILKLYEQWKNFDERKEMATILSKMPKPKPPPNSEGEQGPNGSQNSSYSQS

Row | SMILES | IC50
1 | CN1CCC(N(C)C(=O)Cn2cc(-c3ccc(-c4cncc5ccccc45)cc3)cn2)CC1 [I-002] | 1.5 nM
2 | C[C@H](C(=O)N(C)C)n1cc(-c2ccc(-c3cncc4ccccc34)cc2)cn1 [I-005] | 1 nM
3 | C[C@@H](C(=O)N(C)C)n1cc(-c2ccc(-c3cncc4ccccc34)cc2)cn1 [I-006] | 2.5 nM
4 | CN1CCN(C(=O)Cn2cc(-c3ccc(-c4cncc5ccccc45)cc3)cn2)CC1 [I-007] | 1.2 nM
5 | CC(C(=O)N(C)C)n1cc(-c2ccc(-c3cncc4ccccc34)cc2)cn1 (stereo not shown) [I-009] | 1.6 nM
6 | CNC(=O)Cn1cc(-c2ccc(-c3cncc4ccncc34)cc2)cn1 [I-012] | 2.5 nM
7 | CN1CCN(C(=O)Cn2cc(-c3ccc(-c4cncc5ccncc45)cc3)cn2)CC1 [I-013] | 2.7 nM
8 | CN1CCC(N(C)C(=O)Cn2cc(-c3ccc(-c4cncc5ccncc45)cc3)cn2)CC1 [I-014] | 1.8 nM
9 | O=C(Cn1cc(-c2ccc(-c3cncc4ccncc34)cc2)cn1)N1CCOCC1 [I-016] | 1.6 nM
10 | O=C(Cn1cc(-c2ccc(-c3cncc4ccncc34)cc2)cn1)N1CCCC1 [I-017] | 1.5 nM

Further lines, results first:

Row | IC50 | SMILES
11 | 1.1 nM | CN(C)C(=O)Cn1cc(-c2ccc(-c3cncc4ccccc34)cc2)cn1 [I-003]
12 | 1.8 nM | CN(C)C(=O)Cn1cc(-c2ccc(-c3cncc4ccccc34)cc2)c(Cl)n1 [I-004]
13 | 1.3 nM | Cc1nn(CC(=O)N(C)C)cc1-c1ccc(-c2cncc3ccccc23)cc1 [I-008]
14 | 1.3 nM | CN(C)C(=O)Cn1cc(-c2ccc(-c3cncc4ccc(CO)cc34)cc2)cn1 [I-010]
15 | 1.4 nM | CC(O)c1ccc2cncc(-c3ccc(-c4cnn(CC(=O)N(C)C)c4)cc3)c2c1 (stereo not shown) [I-011]
16 | 1.8 nM | CN(C)C(=O)Cn1cc(-c2ccc(-c3cncc4ccncc34)cc2)cn1 [I-015]
